{"source": "patent US10799439B2", "about": "“Coating of clay micro-tubes on surfaces of hair and natural fibers” (Louisiana Tech Research Corporation, priority 2017, dated 2020)", "experiment": "dye/drug loading of halloysite micro-tubes (TGA)", "assay_type": "physicochemical", "conditions": "SDS-hydrophobized halloysite lumen", "procedure": "One example method of loading the micro-tubes with a (substantially) water soluble hair dye agent uses the dye Indigo carmine. The Indigo carmine dye is dissolved in 1 mL of DI water at a ratio of 4% by weight (i.e., 40 mg of dye) under sonication. 40 mg of halloysite is added to the dispersion and sonicated until a homogeneous dispersion is obtained. The dispersion is place under a low vacuum (e.g., at approximately 1 psi or less) for three cycles, one hour for each cycle. The halloysite is then thoroughly washed with DI water five time by centrifuging at 10,600 rcf for three minutes. The washed halloysite was then dried in a hot air oven at 60° C. This procedure produced a 6 to 8 weight percent dye loading efficiency, i.e., weight of dye with respect to the weight of clay micro-tubes. However, different procedures may be used and generally it is desirable to generate micro-tubes loaded to about 5 to 10 weight percent dye loading efficiency, but in other embodiments, the loading efficiency could be between 2 to 35 weight percent (or any sub-range in between, with one specific example being 2% to 15%).\nOne example method of loading the micro-tubes with a (substantially) water insoluble hair dye agent uses the dye Lawsone. It is preferable to modify the halloysite lumen surface to allow more ready binding of nonpolar molecules. […]"}
{"smiles": "CC1(C)C(C=C(Cl)Cl)C1C(=O)OCc1cccc(Oc2ccccc2)c1", "note": "(stereo not shown) [permethrin, Permethrin]", "values": [{"measurement": "content in loaded nanotubes (TGA analysis)", "result": "3-5 wt. %"}]}
